ChEMBL document CHEMBL5620406, “Synthesis and biological evaluation of novel pyrazole amides as potent mitochondrial complex I inhibitors” (Eur J Med Chem, 2023)
pIC50: −log10 of the molar value. Calls of active or inactive are those of the source. The calls are words filed in the database; no cut-off is given here.

Legend:
[1] = Inhibition of mitochondrial complex I (unknown origin) incubated for 15 mins by microplate reader analysis; parameters: species or system Homo sapiens
Homo sapiens = species: Homo sapiens; assay: Inhibition of mitochondrial complex I (unknown origin) at 1 uM incubated for 15 mins by microplate reader analysis relative to control
NCM460 = assay: Antiproliferative activity against human NCM460 cells assessed as inhibition of cell growth incubated for 96 hrs by MTT assay; assay type: functional, cell-based; conditions: NCM460, 96 h
HCT-116 [2] = assay: Antiproliferative activity against human HCT-116 cells assessed as inhibition of cell growth incubated for 96 hrs by MTT assay; assay type: functional, cell-based; conditions: HCT-116, 96 h
KG-1 [3] = assay: Antiproliferative activity against human KG-1 cells assessed as inhibition of cell growth incubated for 96 hrs by MTT assay; assay type: functional, cell-based; conditions: KG-1, 96 h
KG-1 [4] = assay: Induction of ROS generation in human KG-1 cells at 32 nM measured for 30 mins by DCFDA-staining based flow cytometry analysis; assay type: functional, cell-based
HCT-116 [5] = assay: Induction of mitochondrial membrane potential depolarization in human HCT-116 cells at 2 nM incubated for 24 hrs by JC-1 staining based flow cytometry analysis; assay type: functional
[6] = Apparent permeability across apical to basolateral side in human Caco-2 cells incubated for 120 mins by LC-MS/MS analysis; assay type: ADME, cell-based
[7] = Apparent permeability across basolateral side to apical in human Caco-2 cells incubated for 120 mins by LC-MS/MS analysis; assay type: ADME, cell-based
[8] = Efflux ratio of apparent permeability across basolateral to apical membrane to apical to basolateral membrane in human Caco-2 cells incubated for 120 mins by LC-MS/MS analysis; assay type: ADME, cell-based

Structure (SMILES) | inhibition (Homo sapiens) | further results
CC(C)(C)c1cc(C(=O)Nc2ccc(OC(F)(F)F)cc2)nn1Cc1cccc(N2CCC(S(C)(=O)=O)CC2)c1 | 38.7% | pIC50 [1]: 5.87
CS(=O)(=O)C1CCN(c2cccc(Cn3nc(C(=O)Nc4ccc(OC(F)(F)F)cc4)c4c5nn(c6c5COCC6)c43)c2)CC1 | 13.2% | pIC50 [1]: 4.00
Cc1cc(C(=O)Nc2ccc(OC(F)(F)F)cc2)nn1Cc1cccc(-c2ccc(S(C)(=O)=O)cc2)c1 | 52.5% | pIC50 [1]: 6.07
Cc1cc(C(=O)Nc2ccc(OC(F)(F)F)cc2)nn1Cc1cccc(-c2ccc(C(C)(C)C)cc2)c1 | 29.6% | –
Cc1cc(C(=O)Nc2ccccc2OC(F)(F)F)nn1Cc1cccc(N2CCN(C(=O)C3CC3)CC2)c1 | 1.87% | –
Cc1cc(C(=O)Nc2ccc(OC(F)(F)F)cc2)nn1Cc1ccc(N2CCC(S(C)(=O)=O)CC2)cc1 | 3.85% | –
Cc1nc(-c2nc(-c3ccc(OC(F)(F)F)cc3)no2)nn1Cc1cccc(N2CCC(S(C)(=O)=O)CC2)c1 | 32.7% | pIC50 (NCM460): < 6.00; pIC50 [1]: 3.94; pIC50 (HCT-116 [2]): 8.02; pIC50 (KG-1 [3]): 7.19; Activity (KG-1 [4]): Active; Activity (HCT-116 [5]): 21.1%; Papp A→B at 2 h [6]: 4.86 ×10⁻⁶ cm/s; Papp B→A at 2 h [7]: 3.33 ×10⁻⁶ cm/s; efflux ratio at 2 h [8]: 0.68
Cc1cc(C)cc(-c2cccc(Cn3nc(C(=O)Nc4ccc(OC(F)(F)F)cc4)cc3C)c2)c1 | 3.73% | –
Cc1cc(C(=O)Nc2ccc(OC(F)(F)F)cc2)nn1Cc1cccc(-c2ccccc2O)c1 | 25.6% | –
Cc1cc(C(=O)Nc2ccc(OC(F)(F)F)cc2)nn1Cc1cccc(N2CCN(S(C)(=O)=O)CC2)c1 | 50.4% | pIC50 [1]: 5.97
Cc1cc(C(=O)Nc2cccnc2)nn1Cc1cccc(N2CCN(C(=O)C3CC3)CC2)c1 | 16.1% | –
Cc1ccc(Cn2nc(C(=O)Nc3ccc(OC(F)(F)F)cc3)cc2C)cc1 | 8.06% | –
Cc1cc(C(=O)Nc2ccc(OC(F)(F)F)cc2)nn1Cc1ccc2ccccc2c1 | 4.6% | –
COc1ccc(NC(=O)c2cc(C)n(Cc3cccc(N4CCN(C(=O)C5CC5)CC4)c3)n2)cc1OC | 4.85% | –
Cc1cc(C(=O)Nc2ccc(OC(F)(F)F)cc2)nn1Cc1cccc(N(C)C2CCOCC2)c1 | 13.5% | –
COc1ccc(NC(=O)c2cc(C)n(Cc3cccc(N4CCN(C(=O)C5CC5)CC4)c3)n2)cc1 | 5.23% | –
CS(=O)(=O)C1CCN(c2cccc(Cn3nc(C(=O)Nc4ccc(OC(F)(F)F)cc4)c4c5nn(c6ccccc56)c43)c2)CC1 | 1.12% | pIC50 [1]: 4.04
Cc1cccc(NC(=O)c2cc(C)n(Cc3cccc(N4CCN(C(=O)C5CC5)CC4)c3)n2)c1 | 6.44% | –
Cc1ccc(NC(=O)c2cc(C)n(Cc3cccc(N4CCN(C(=O)C5CC5)CC4)c3)n2)cc1F | 3.49% | –
CS(=O)(=O)C1CCN(c2cccc(Cn3nc(C(=O)Nc4ccc(OC(F)(F)F)cc4)cc3-c3ccccc3)c2)CC1 | 36.3% | pIC50 [1]: 5.85
Cc1cc(C(=O)Nc2ccc(OC(F)(F)F)cc2)nn1Cc1cccc(N2CCOCC2)c1 | 8.94% | –
Cc1cc(C(=O)Nc2cccc(OC(F)(F)F)c2)nn1Cc1cccc(N2CCN(C(=O)C3CC3)CC2)c1 | 3.1% | –

Structure (SMILES) | inhibition (Homo sapiens) | further results
Cc1cc(C(=O)Nc2ccc(Cl)c(F)c2)nn1Cc1cccc(N2CCN(C(=O)C3CC3)CC2)c1 | 11.1% | –
Cc1cc(C(=O)Nc2ccccc2F)nn1Cc1cccc(N2CCN(C(=O)C3CC3)CC2)c1 | 1.72% | –
COc1cc(Cn2nc(C(=O)Nc3ccc(OC(F)(F)F)cc3)cc2C)cc(OC)c1 | 2.05% | –
Cc1cn(Cc2cccc(N3CCC(S(C)(=O)=O)CC3)c2)nc1C(=O)Nc1ccc(OC(F)(F)F)cc1 | 9.43% | –
Cc1cc(C(=O)Nc2ccc(OC(F)(F)F)cc2)nn1Cc1cccc(N2CCS(=O)(=O)CC2)c1 | 6.09% | –
Cc1ccc(NC(=O)c2cc(C)n(Cc3cccc(N4CCN(C(=O)C5CC5)CC4)c3)n2)cc1 | 7.73% | –
C=C(C)[C@H]1Cc2c(ccc3c2O[C@@H]2COc4cc(OC)c(OC)cc4[C@@H]2C3=O)O1 | 71.8% | –
Cc1cc(C(=O)Nc2ccc(OC(F)(F)F)cc2)nn1Cc1cccc(S(=O)(=O)N2CCOCC2)c1 | 4.42% | –
Cc1cc(C(=O)Nc2cccc(F)c2)nn1Cc1cccc(N2CCN(C(=O)C3CC3)CC2)c1 | 1.54% | –
Cc1cc(C(=O)Nc2ccc(OC(F)(F)F)cc2)nn1Cc1cccc(N2CCC(S(C)(=O)=O)CC2)c1 | 49.7% | pIC50 [1]: 6.02
Cc1cc(C(=O)Nc2ccc(OC(F)(F)F)cc2)nn1Cc1cccc(Br)c1 | 1.54% | –
Cc1cc(C(=O)Nc2ccc(OC(F)(F)F)cc2)nn1Cc1ccccc1 | 1.03% | –
Cc1cc(C(=O)Nc2cc(F)cc(F)c2)nn1Cc1cccc(N2CCN(C(=O)C3CC3)CC2)c1 | 9.58% | –
CS(=O)(=O)C1CCN(c2cccc(Cn3ccc(C(=O)Nc4ccc(OC(F)(F)F)cc4)n3)c2)CC1 | 26.6% | –
CS(=O)(=O)C1CCN(c2cccc(Cn3nc(C(=O)Nc4ccc(OC(F)(F)F)cc4)c4c5nn(c6c5CCC6)c43)c2)CC1 | 29.2% | pIC50 [1]: 4.04
Cc1cc(C(=O)Nc2ccccc2)nn1Cc1cccc(N2CCN(C(=O)C3CC3)CC2)c1 | 7.12% | –
COc1ccccc1-c1cccc(Cn2nc(C(=O)Nc3ccc(OC(F)(F)F)cc3)cc2C)c1 | 3.57% | –
Cc1cc(C(=O)Nc2ccc(F)cc2)nn1Cc1cccc(N2CCN(C(=O)C3CC3)CC2)c1 | 8.24% | –
Cc1cc(C(=O)Nc2ccc(OC(F)(F)F)cc2)nn1Cc1cccnc1 | 1.37% | –
Cc1ccccc1Cn1nc(C(=O)Nc2ccc(OC(F)(F)F)cc2)cc1C | 1.7% | –
Cc1cc(C(=O)Nc2ccc(OC(F)(F)F)cc2)nn1Cc1ccc(F)c(Br)c1 | 1.32% | –
